Drawing on the METLIN SMRT retention time set (Domingo-Almenara et al. 2019), this text covers RP-LC retention time for 79 compounds.

Structures are written as SMILES.

This data set can be described thus: gradient 5% acetonitrile 3 min, to 50% in 2 min, to 85% in 15 min, held 3 min, 100 µL/min. As to conditions: column: Zorbax Extend-C18 2.1 x 50 mm; eluents: water / acetonitrile, 0.1% formic acid. The essentials: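 In both positive and negative ionization mode, a quadrupole time-of-flight mass spectrometer coupled to HPLC analyzed pure standards run in mixtures of ~100 molecules. The Zorbax Extend-C18 column (2.1 × 50 mm, 1.8 μm) was operated at 100 μL/min with water and acetonitrile, each containing 0.1% formic acid. The dead volume was 40 μL and the dwell volume 900 μL. Retention time came from adduct peaks that were computationally picked and individually inspected by hand.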
`Cc1ccc(Cl)cc1N1CCN(C(=O)c2[nH]c(C)c(S(=O)(=O)N3CCCC3)c2C)CC1`: the RP-LC retention time amounted to 1060 s.

In turn, `Cc1noc([C@]23CN(CCc4ccccc4)CC[C@H]2CN(CCc2ccccc2)C3)n1` gave an RP-LC retention time of 573 s.

The compound `COC(=O)c1ccc(CSc2nnc(CNC(=O)c3ccccc3)o2)o1` showed an RP-LC retention time of 683 s. `COc1ccc(N2CC(c3noc(-c4cc(C)cc(C)c4)n3)CC2=O)cc1OC` (centres undefined) displayed an RP-LC retention time of 1010 s. Under `Cc1noc(-c2ccc(OC3CN(C(=O)NCC(C)C)C3)cc2)n1` stands 781 s. The compound `CCn1c(C(=O)NCc2ccc(F)cc2)cc2sccc21` gave an RP-LC retention time of 1010 s. With `CCOC(=O)c1c(C)[nH]c(C(=O)N2CCCC(C(=O)NCCN3CCCCCC3)C2)c1C` (centres undefined) the figure was 578 s.

For the compound `COc1cc(C(=O)N2CCC3(CC2)NC(=O)c2ccccc2N3C)cc(OC)c1OC`, the RP-LC retention time was 669 s. Under `CCOc1ccccc1CNC(=O)C1CCN(Cc2cn(C)c3ccc(Cl)cc23)CC1` stands 751 s; under `COc1ccc(OC)c(Nc2c(-c3ccccc3)nc3cnccn23)c1`, 839 s. In turn, `CCOC(=O)COc1cc(-c2ccccc2)nc2ccc(NC(=O)C3CCC3)cc12` registered an RP-LC retention time of 780 s. Under `CSc1ccc(-c2nc3cc(C)ccn3c2Nc2ccc3c(c2)OCO3)cc1` stands 748 s. Under `CC(C)S(=O)(=O)N1CCC(F)(c2nc(-c3ccccc3)no2)CC1` stands 1020 s; under `CC(=O)N1CCC(C(=O)NCc2ccc(-c3nc(-c4ccc(F)cc4)no3)s2)CC1`, 786 s. With `O=C(C1=CN(c2ccccc2)c2cc(Cl)ccc2S1(=O)=O)N1CCCC1` the figure was 827 s; with `COc1ccccc1-c1nc2cnccn2c1NCCC(=O)N1CCc2ccccc21`, 772 s; with `CC1CCN(S(=O)(=O)c2ccc(-c3nnc(C(=O)NCc4ccccc4Cl)o3)cc2)CC1`, 1110 s.

With `Cc1cc(OCC(=O)N2CCC(C)CC2)nc(-c2ccc(Cl)cc2)n1`, the RP-LC retention time was 1150 s. With `COc1ccc(S(=O)(=O)N2CCCC(C(=O)N3CCC(Cc4ccccc4)CC3)C2)cc1Cl` (centres undefined) the figure was 1170 s. Under `CCOc1ccc(-c2noc(Cc3nnc(-c4cccc(F)c4)o3)n2)cc1` stands 1090 s; under `Cc1ccc2c(Nc3cccc(Cl)c3)c(C(=O)N3CCOCC3)cnc2n1`, 606 s; under `Cc1ccc(S(=O)(=O)N2CCC3(CC2)CC(C)(O)CCO3)cc1Cl` (centres undefined), 888 s. Under `COC(=O)c1ccc(C(=O)NCc2nc(C)no2)cc1` stands 637 s; under `Cc1cc2n(n1)CCC(=O)N2CCCC(=O)NCCCOC(C)C`, 618 s. As for `O=C(NCc1ccc(F)cc1F)C1CCN(c2cncnc2N2CCOCC2)CC1`, the RP-LC retention time came to 618 s. With `COc1ccc(CNC(=O)Nc2ccccc2NC(=O)c2cccc(Cl)c2)cc1OC` the figure was 808 s; with `CCC1CCCCN1C(=O)c1cnc2nc(C)ccc2c1Nc1cc(C)cc(C)c1` (centres undefined), 722 s. As for `CCCN(CCC)CC(=O)N1CC(=O)Nc2ccccc21`, the RP-LC retention time is 617 s. With `Cc1ccn2cc(C(=O)NCc3cccc(F)c3)nc2c1` the figure was 645 s; with `CC(=O)c1ccc(NC(=O)CC(C)n2cncn2)cc1` (centres undefined), 604 s. With `CCc1ccc(NC(=O)N2CCCC(C)(C(=O)NCc3ccc(F)cc3)C2)cc1` (centres undefined) the figure was 972 s; with `O=C(Nc1c(F)cccc1F)N1CCc2nc(-c3ccccc3)ncc2C1`, 811 s. Under `CCOC(=O)C(=O)Nc1ccc(SCc2nnc(-c3ccc4c(c3)OCO4)o2)cc1` stands 866 s; under `Cc1cccc(NC(=O)Cn2cnc3c(sc4nc(-c5ccccc5)ccc43)c2=O)c1C`, 1020 s; under `Cc1ccc(-c2ncccc2CNS(=O)(=O)c2ccc(F)c(C)c2)cc1`, 743 s.

`COCCCNC(=O)COc1ccccc1-c1nnc(-c2ccccc2)o1` registered an RP-LC retention time of 900 s. Under `CCOc1ccc(CC(=O)N2CC(=O)Nc3ccccc32)cc1` stands 706 s. With `COc1cc(OC)cc(-c2noc(-c3nn(-c4ccc(Cl)cc4)ccc3=O)n2)c1` the figure was 973 s; with `NS(=O)(=O)C#Cc1ccccc1`, 729 s; with `CC1C(=O)NCCN1C(=O)Cc1ccc2c(c1)OCO2` (centres undefined), 600 s.

Compound `CCN1CCN(CCCNC(=O)C2CCN(c3nc4cccnc4n(CC)c3=O)CC2)CC1` came in with an RP-LC retention time of 580 s. The compound `O=C(NC1CCCC1)C1CCCN(S(=O)(=O)c2c[nH]c(C(=O)N3CCCCCC3)c2)C1` (centres undefined) showed an RP-LC retention time of 784 s. Under `Cc1cc(-c2nnc(-c3ccccc3)o2)c(C)n1CC(=O)NC(C)c1ccccc1` (centres undefined) stands 921 s. With `Cc1ccn2cc(C(=O)N3CCN(c4cccc(Cl)c4)CC3)nc2c1` the figure was 692 s; with `Cc1ccc(N2C(=O)CCS2(=O)=O)cc1S(=O)(=O)NCCc1c[nH]c2ccccc12`, 799 s. With `O=C(Cn1cnc(-c2ccc(F)cc2)cc1=O)NCc1ccco1` the figure was 684 s; with `Cn1c(=O)n(C)c2cc(NS(=O)(=O)c3ccc(F)cc3)c(Cl)cc21`, 726 s; with `CC(C)OCCCNC(=O)c1cc2c(n(-c3ccc(C(C)C)cc3)c1=O)CCCC2=O`, 989 s. On to `Cc1ccc(NC(=O)C2CCCN(S(=O)(=O)c3c[nH]c(C(=O)N4CCCC4)c3)C2)cc1F` (centres undefined), for which the RP-LC retention time is 859 s.

As to `COc1ccc(-c2noc(C3CCCN3C(=O)Nc3ccc(C)cc3C)n2)cc1` (centres undefined), the RP-LC retention time is 925 s. Under `O=C(NCc1ccco1)C1CCCN(c2ccc(-c3ccccc3)nn2)C1` (centres undefined) stands 654 s. Under `Cc1cc(Nc2nc(C(=O)NCCN3CCOCC3)cc3occc23)ccc1Br` stands 621 s.

For the compound `CCC(C)NC(=O)Cn1nc2nc(Nc3ccc(F)cc3)ccn2c1=O` (centres undefined), the RP-LC retention time amounted to 684 s.

In the case of `COc1ccc(-c2noc(Cn3cnc4c(cnn4-c4ccc(F)cc4)c3=O)n2)cc1OC`, the RP-LC retention time amounted to 930 s. With `COc1cccc(-c2noc(Cn3cnc4c(nnn4-c4ccccc4OC)c3=O)n2)c1`, the RP-LC retention time stood at 914 s. Under `COc1ccc(-c2nn(CCCC(=O)N3CCN(c4ccccn4)CC3)c(=O)c3noc(C)c23)cc1` stands 636 s; under `Cc1cc(C(=O)NCCN2CCOCC2)nc2cc(-c3ccccn3)nn12`, 693 s. Turning to `CC(=O)Nc1cc(C(=O)NCc2ccc(OC(C)C)cc2)c2ccc(C)nc2c1`, the RP-LC retention time amounted to 640 s. Under `Cn1cc(CCN2CCN(S(=O)(=O)c3ccc(Cl)cc3)CC2)c2cccnc21` stands 645 s; under `Cc1ccc(C(=O)N2CCc3[nH]cnc3C23CCCC3)c(C)c1`, 564 s; under `O=C(Cn1nc2c3sc(N4CCCCC4)nc3ncn2c1=O)Nc1ccc(F)c(Cl)c1`, 869 s. With `O=C1NCCCCCCN(C(=O)c2cn[nH]c2)[C@H]2CCC[C@@H]12` the figure was 625 s; with `CCCn1cc(CCNC(=O)Nc2cc(Cl)ccc2Cl)c2cccnc21`, 963 s. The compound `COc1ccc(-c2nc(C)cc(C)c2CNC(=O)CC2CCCC2)cc1` yielded an RP-LC retention time of 639 s.

With `O=C(Nc1ccc(Cl)cn1)C(=O)c1cccn1Cc1ccccc1`, the RP-LC retention time amounted to 1180 s. Under `Cc1cccc(NC(=O)Cn2cnc3nc(N4CCC(C(=O)NC5CC5)CC4)sc3c2=O)c1C` stands 693 s. Take `COc1ccc(C2C(C(=O)NCCN(C)C)c3cc(OC)c(OC)cc3C(=O)N2C)cc1` (centres undefined): the RP-LC retention time came to 597 s.

Compound `O=S(=O)(NCc1cccs1)c1ccc(Cl)c(-c2nnc(-c3ccccc3)o2)c1` had an RP-LC retention time of 1020 s. With `Cc1scc2nc(C3CCC3)nc(N3CCC(C(=O)N4CCN(c5ccccc5F)CC4)CC3)c12` the figure was 838 s; with `CCn1ncc(Cl)c1C(=O)N1CCCC1c1cc(C)no1` (centres undefined), 741 s. Under `Cc1ccc(NC(=O)C2CCN(S(C)(=O)=O)c3cc(C)ccc3O2)cc1` (centres undefined) stands 976 s; under `Cc1ccc(-n2nc3c(N4CCCC(C(=O)NCCN5CCN(C)CC5)C4)nnc(C)c3c2C)cc1` (centres undefined), 567 s. Take `Cc1ccc(NC(=O)Nc2c(Cl)cccc2Cl)cn1`: the RP-LC retention time turned out to be 905 s. `Cc1cc2nn(CC(=O)NCc3ccccc3)c(=O)n2c(Nc2ccccc2C)n1` gave an RP-LC retention time of 990 s. With `Cn1nc(-c2nnc(-c3ccc(F)cc3)o2)c2c1CCN(S(=O)(=O)c1cccc3cccnc13)C2` the figure was 882 s; with `Cc1ccc(OCc2nn3c(-c4ccoc4C)nnc3s2)cc1C`, 1090 s. With `CCc1ccc(N2CCC(C(=O)NCCc3c[nH]c4ccc(C)cc34)C2=O)cc1` (centres undefined) the figure was 1010 s; with `COc1cc(OC)c(NC(=O)N(C)CCc2noc(-c3ccc(F)cc3)n2)cc1Cl`, 943 s.

Regarding `Cc1ccc(S(=O)(=O)N(C)CCCC(=O)N2CCN(c3ccccn3)CC2)cc1`, the RP-LC retention time was found to be 576 s.
